This is an account of results in patent US20090215884A1, “METHOD FOR WOUND HEALING” (priority 2005, published 2009).

The test system of one data set is fibroblasts. Put plainly: Cytokine production by PEP005-treated human fibroblasts. It is filed as cell-based. Particulars: 6 h, supernatant. As for the experimental part: Cytokine production by PEP005-treated human cells Confluent cultures of Me10538 cells, keratinocytes, fibroblasts and neutrophils were incubated for 6 h in the absence or presence of PEP005 (1-100 ng/ml). The supernatants were harvested and analyzed for the presence of the following cytokines; TNF-α, IL-6 and IL-8 using a multiplex detection kit (Biosource International, Nivelles, Belgium). Units of detected proteins are pg/ml.

The test system of another data set is epidermal keratinocytes. Put plainly: MTT cell viability and proliferation, epidermal keratinocytes. It is filed as cell-based, human. To be noted: 100 μg/ml PEP005. As for the experimental part: Human, adult, epidermal keratinocytes, were purchased cryopreserved from Cascade Biologics Inc., Nottinghamshire, U.K. These cells (>500,000 viable cells/vial) were tested to be >70% viable, with the capacity to proliferate for at least 16 population doublings. The epidermal keratinocytes were cultured in serum-free, EpiLife® Medium (Cascade Biologics Inc.), supplemented with antibiotics (100 U/ml penicillin G sodium, […] streptomycin sulphate and 0.25 μg/ml amphotericin B) and EpiLife® Defined Growth Supplement (EDGS, consisting of purified bovine serum albumin, purified bovine transferring, hydrocortisone, recombinant human insulin-like growth factor type-1, prostaglandin E2 and recombinant human epidermal growth factor, Cascade Biologics Inc.). Epidermal keratinocytes cultures were maintained at 37° C., in a 5% CO2/95% air atmosphere, with the culture medium being changed every 2-3 days. Epidermal keratinocytes were used between 4-6 passages, for all experiments.
Prior to use, the PEP005/DMSO stock solution was removed from 4° C. storage and warmed to room temperature. […]

For `C/C=C(/C)C(=O)O[C@H]1C(C)=C[C@]23C(=O)[C@@H](C=C(CO)[C@@H](O)[C@]12O)[C@H]1[C@@H](C[C@H]3C)C1(C)C` [PEP005, ingenol-3-angelate], the IL-6 with fibroblasts (PEP005 1 ng/ml) came out at 81 ± 4 pg/mL; in the data set with fibroblasts (PEP005 5 ng/ml), 85 ± 4 pg/mL; in the data set on fibroblasts (PEP005 10 ng/ml), 141 ± 6 pg/mL; in the data set with fibroblasts (PEP005 100 ng/ml), 205 ± 5 pg/mL. The IL-8 with fibroblasts (PEP005 1 ng/ml) was 79 ± 3 pg/mL; in the data set with fibroblasts (PEP005 5 ng/ml), 160 ± 14 pg/mL; in the data set on fibroblasts (PEP005 10 ng/ml) it was 215 ± 12 pg/mL; in the data set with fibroblasts (PEP005 100 ng/ml), 239 ± 9 pg/mL. Moreover, the “keratinocyte cell viability/proliferation (MTT)” value with epidermal keratinocytes is recorded as “cytotoxic effect”.
